Here are results for 1 compound from PMC5218480 (PLoS ONE, 2017).

In the test the test system is MV-4-11 cells. Kind of test: Gene expression microarray analysis (Affymetrix PrimeView) and GSEA. Conditions: ProbeSet 11739696_s_at; LIST D. The class given is cell-based, human. More on the design: RFU PODN (11730768_x_at) / Fold change /veh PODN (11730768_x_at) / RFU LINC00158 (11744669_a_at) / Fold change /veh LINC00158 (11744669_a_at) / RFU DUSP10 (11751237_a_at) / Fold change /veh DUSP10 (11751237_a_at) / RFU ID3 (11757404_x_at) / Fold change /veh ID3 (11757404_x_at) / RFU PLEKHG5 (11737974_s_at) / Fold change /veh PLEKHG5 (11737974_s_at) / RFU LRRC4B (11730491_at) / Fold change /veh LRRC4B (11730491_at) / RFU GIMAP4 (11747438_a_at) / Fold change /veh GIMAP4 (11747438_a_at) / RFU KRT8 (11758183_x_at) / Fold change /veh KRT8 (11758183_x_at) / RFU CNN1 (11734310_a_at) / Fold change /veh CNN1 (11734310_a_at) / RFU VPS37D (11726825_at) / Fold change /veh VPS37D (11726825_at) / RFU C10orf10 (11716522_x_at) / Fold change /veh C10orf10 (11716522_x_at) / RFU KIR2DL2 /// KIR2DL4 /// KIR2DL5A /// KIR2DL5B /// KIR2DS1 /// KIR2DS2 /// KIR2DS3 /// KIR2DS4 /// KIR3DL3 /// KIR3DL3 /// KIR3DS1 (11738374_at) / Fold change /veh KIR2DL2 /// KIR2DL4 /// KIR2DL5A /// KIR2DL5B /// KIR2DS1 /// KIR2DS2 /// KIR2DS3 /// KIR2DS4 /// KIR3DL3 /// KIR3DL3 /// KIR3DS1 (11738374_at) / RFU C1QL1 (11718748_at) / Fold change /veh C1QL1 (11718748_at) / RFU TMPRSS4 (11747572_a_at) / Fold change /veh TMPRSS4 (11747572_a_at) / RFU HAMP (11756126_x_at) / Fold change /veh HAMP (11756126_x_at) / RFU RNFT2 (11725882_a_at) / Fold change /veh RNFT2 (11725882_a_at) / RFU NR4A2 (11747474_a_at) / Fold change /veh NR4A2 (11747474_a_at) / RFU ABCC12 (11746883_a_at) / Fold change /veh ABCC12 (11746883_a_at) / RFU TMEM136 (11760407_x_at) / Fold change /veh TMEM136 (11760407_x_at) / RFU CLDN22 /// WWC2 (11732394_at) / Fold change /veh CLDN22 /// WWC2 (11732394_at) / RFU HLA-DPB1 (11760878_x_at) / Fold change /veh HLA-DPB1 (11760878_x_at) / RFU SPINT1 (11716480_a_at) / Fold change /veh SPINT1 (11716480_a_at) / RFU GAP43 (11754022_s_at) / Fold change /veh GAP43 (11754022_s_at) / RFU A4GNT (11735810_at) / Fold change /veh A4GNT (11735810_at) / RFU PRB3 (11715151_x_at) / Fold change /veh PRB3 (11715151_x_at) / RFU TUBB4B (11761932_at) / Fold change /veh TUBB4B (11761932_at) / RFU CAPN14 (11732068_a_at) / Fold change /veh CAPN14 (11732068_a_at) / RFU TMCC2 (11721928_a_at) / Fold change /veh TMCC2 (11721928_a_at) / RFU IRGQ (11745062_a_at) / Fold change /veh IRGQ (11745062_a_at) / RFU FAM174B (11720279_a_at) / Fold change /veh FAM174B (11720279_a_at) / RFU TMPRSS4 (11748680_a_at) / Fold change /veh TMPRSS4 (11748680_a_at) / RFU FAM212B (11763350_a_at) / Fold change /veh FAM212B (11763350_a_at) / RFU PLEKHG5 (11743358_a_at) / Fold change /veh PLEKHG5 (11743358_a_at) / RFU ZSCAN30 (11745921_a_at) / Fold change /veh ZSCAN30 (11745921_a_at) / RFU CMKLR1 (11741424_a_at) / Fold change /veh CMKLR1 (11741424_a_at) / RFU LOC101060620 /// MAPK8IP1 (11723275_at) / Fold change /veh LOC101060620 /// MAPK8IP1 (11723275_at) / RFU SPTSSB (11747773_x_at) / Fold change /veh SPTSSB (11747773_x_at) / RFU PRSS12 (11739890_at) / Fold change /veh PRSS12 (11739890_at) / RFU BIN1 (11741810_x_at) / Fold change /veh BIN1 (11741810_x_at) / RFU WNT11 (11732464_a_at) / Fold change /veh WNT11 (11732464_a_at) / RFU C10orf10 (11716521_a_at) / Fold change /veh C10orf10 (11716521_a_at) / RFU C5orf56 (11738089_at) / Fold change /veh C5orf56 (11738089_at) / RFU CYB561 (11721691_x_at) / Fold change /veh CYB561 (11721691_x_at) / RFU ANKRD19P (11752326_a_at) / Fold change /veh ANKRD19P (11752326_a_at) / RFU OR2T12 /// OR2T33 /// OR2T8 (11738714_s_at) / Fold change /veh OR2T12 /// OR2T33 /// OR2T8 (11738714_s_at) / RFU VCAN (11748164_a_at) / Fold change /veh VCAN (11748164_a_at) / RFU JSRP1 (11732532_at) / Fold change /veh JSRP1 (11732532_at) / RFU KRTAP10-11 (11738290_x_at) / Fold change /veh KRTAP10-11 (11738290_x_at) / RFU MYO3A (11730013_a_at) / Fold change /veh MYO3A (11730013_a_at) / RFU EBF3 (11725865_a_at) / Fold change /veh EBF3 (11725865_a_at) / RFU CAMK2N1 (11719241_x_at) / Fold change /veh CAMK2N1 (11719241_x_at) / RFU C5orf56 (11738088_a_at) / Fold change /veh C5orf56 (11738088_a_at) / RFU OLFML3 (11715873_a_at) / Fold change /veh OLFML3 (11715873_a_at) / RFU LOC100653217 /// NTM (11731650_a_at) / Fold change /veh LOC100653217 /// NTM (11731650_a_at) / RFU MAPK11 (11762145_a_at) / Fold change /veh MAPK11 (11762145_a_at) / RFU FIZ1 (11724087_x_at) / Fold change /veh FIZ1 (11724087_x_at) / RFU OASL (11726364_x_at) / Fold change /veh OASL (11726364_x_at) / RFU SOX15 (11748057_x_at) / Fold change /veh SOX15 (11748057_x_at) / RFU CD79A (11719716_a_at) / Fold change /veh CD79A (11719716_a_at) / RFU HIST1H1D (11736915_at) / Fold change /veh HIST1H1D (11736915_at) / RFU CASKIN2 (11723855_a_at) / Fold change /veh CASKIN2 (11723855_a_at) / RFU LOC730098 (11760151_x_at) / Fold change /veh LOC730098 (11760151_x_at) / RFU OR4N2 (11742367_at) / Fold change /veh OR4N2 (11742367_at) / RFU PRRT2 (11749266_a_at) / Fold change /veh PRRT2 (11749266_a_at) / RFU SNX32 (11753110_a_at) / Fold change /veh SNX32 (11753110_a_at) / RFU CDHR5 (11726645_a_at) / Fold change /veh CDHR5 (11726645_a_at) / RFU RCAN1 (11760418_a_at) / Fold change /veh RCAN1 (11760418_a_at) / RFU FAM167A (11723789_a_at) / Fold change /veh FAM167A (11723789_a_at) / RFU FAM26E (11764081_at) / Fold change /veh FAM26E (11764081_at) / RFU ISYNA1 (11749810_s_at) / Fold change /veh ISYNA1 (11749810_s_at) / RFU ACY1 (11761880_at) / Fold change /veh ACY1 (11761880_at) / RFU 11764098_at / Fold change /veh 11764098_at / RFU SAMD14 (11745864_x_at) / Fold change /veh SAMD14 (11745864_x_at) / RFU NPB (11741838_a_at) / Fold change /veh NPB (11741838_a_at) / RFU TMPRSS6 (11731388_a_at) / Fold change /veh TMPRSS6 (11731388_a_at) / RFU KRTAP10-2 (11738614_at) / Fold change /veh KRTAP10-2 (11738614_at) / RFU ARHGAP8 /// PRR5-ARHGAP8 (11727945_x_at) / Fold change /veh ARHGAP8 /// PRR5-ARHGAP8 (11727945_x_at) / RFU KRTAP5-7 /// NADSYN1 (11734609_at) / Fold change /veh KRTAP5-7 /// NADSYN1 (11734609_at) / RFU RASL12 (11751679_a_at) / Fold change /veh RASL12 (11751679_a_at) / RFU CDKN2B (11736163_a_at) / Fold change /veh CDKN2B (11736163_a_at) / RFU PRF1 (11729649_at) / Fold change /veh PRF1 (11729649_at) / RFU, ZNF638 /// ZNF638-IT1 / Fold change vs veh, ZNF638 /// ZNF638-IT1 / RFU, PANK3 / Fold change vs veh, PANK3 / RFU, SH3YL1 / Fold change vs veh, SH3YL1 / RFU, ZEB2 / Fold change vs veh, ZEB2 / RFU, NRIP1 / Fold change vs veh, NRIP1 / RFU, PTTG1IP / Fold change vs veh, PTTG1IP / RFU, CAPN2 / Fold change vs veh, CAPN2 / RFU, MED14 / Fold change vs veh, MED14 / RFU, SNORA58 / Fold change vs veh, SNORA58 / RFU, C1orf63 / Fold change vs veh, C1orf63 / RFU, LRRFIP1 / Fold change vs veh, LRRFIP1 / RFU, NDUFAF7 / Fold change vs veh, NDUFAF7 / RFU, SLC12A2 / Fold change vs veh, SLC12A2 / RFU, IBTK / Fold change vs veh, IBTK / RFU, ESF1 / Fold change vs veh, ESF1 / Fold change vs veh, TMEM50B / RFU, TAOK1 / Fold change vs veh, TAOK1 / RFU, ACBD3 / Fold change vs veh, ACBD3 / RFU, TMA16 / Fold change vs veh, TMA16 / RFU, RWDD3 / Fold change vs veh, RWDD3 / RFU, BCAT1 / Fold change vs veh, BCAT1 / RFU, EDEM3 / Fold change vs veh, EDEM3 / RFU, TMEM33 / Fold change vs veh, TMEM33 / RFU, WDR75 / Fold change vs veh, WDR75 / RFU, AHCTF1 / Fold change vs veh, AHCTF1 / RFU, TFRC / Fold change vs veh, TFRC / RFU, ZDHHC17 / Fold change vs veh, ZDHHC17 / RFU, NOM1 / Fold change vs veh, NOM1 / RFU, ARL8B / Fold change vs veh, ARL8B / RFU, ZBTB11 / Fold change vs veh, ZBTB11 / RFU, TAMM41 / Fold change vs veh, TAMM41 / RFU, KIAA1704 /// LOC100996395 / Fold change vs veh, KIAA1704 /// LOC100996395 / RFU, ING1 / Fold change vs veh, ING1 / RFU, TRMT61B / Fold change vs veh, TRMT61B / RFU, FUBP3 / Fold change vs veh, FUBP3 / RFU, TP53 / Fold change vs veh, TP53 / RFU, TNKS2 / Fold change vs veh, TNKS2 / RFU, ZFP14 / Fold change vs veh, ZFP14 / RFU, ACTR2 / Fold change vs veh, ACTR2 / RFU, PPP3R1 / Fold change vs veh, PPP3R1 / RFU, PIK3R1 / Fold change vs veh, PIK3R1 / RFU, HNRNPA1 / Fold change vs veh, HNRNPA1 / RFU, RNF170 / Fold change vs veh, RNF170 / RFU, ZNF28 / Fold change vs veh, ZNF28 / RFU, RNGTT / Fold change vs veh, RNGTT / RFU, OGT / Fold change vs veh, OGT / RFU, BRD1 / Fold change vs veh, BRD1 / RFU, MARS / Fold change vs veh, MARS / RFU, ZNF655 / Fold change vs veh, ZNF655 / RFU, FAHD1 / Fold change vs veh, FAHD1 / RFU, BDP1 / Fold change vs veh, BDP1 / RFU, LRRCC1 / Fold change vs veh, LRRCC1 / RFU, ARID1A / Fold change vs veh, ARID1A / RFU, ZNF146 / Fold change vs veh, ZNF146 / RFU, ZNF330 / Fold change vs veh, ZNF330 / RFU, GPN3 / Fold change vs veh, GPN3 / RFU, C9orf123 / Fold change vs veh, C9orf123 / RFU, N4BP2L2 / Fold change vs veh, N4BP2L2 / RFU, ARFIP1 / Fold change vs veh, ARFIP1 / RFU, FAM179B / Fold change vs veh, FAM179B / RFU, BCL10 / Fold change vs veh, BCL10 / RFU, UHRF1BP1L / Fold change vs veh, UHRF1BP1L / RFU, BET1 / Fold change vs veh, BET1 / RFU, CNOT2 / Fold change vs veh, CNOT2 / RFU, ZNF268 / Fold change vs veh, ZNF268 / Fold change vs veh, ZNF507 / RFU, DGCR2 / Fold change vs veh, DGCR2 / RFU, WDSUB1 / Fold change vs veh, WDSUB1 / Fold change vs veh, HSP90B1 /// MIR3652 / RFU, ADSS / Fold change vs veh, ADSS / RFU, GK / Fold change vs veh, GK / RFU, ZNF148 / Fold change vs veh, ZNF148 / RFU, TAF9 / Fold change vs veh, TAF9 / RFU, SLC1A5 / Fold change vs veh, SLC1A5 / RFU, SLMO2 / Fold change vs veh, SLMO2 / RFU, ABCC4 / Fold change vs veh, ABCC4 / RFU, LOC101060439 /// RAP1B / Fold change vs veh, LOC101060439 /// RAP1B / RFU, RFX7 / Fold change vs veh, RFX7 / RFU, GTPBP10 / Fold change vs veh, GTPBP10 / RFU, CNEP1R1 / Fold change vs veh, CNEP1R1 / RFU, BIVM-ERCC5 /// ERCC5 / Fold change vs veh, BIVM-ERCC5 /// ERCC5 / RFU, ILF3 / Fold change vs veh, ILF3 / RFU 11762660_at / Fold change /veh 11762660_at / RFU VCAN (11757783_s_at) / Fold change /veh VCAN (11757783_s_at) / RFU DDX43 (11728927_at) / Fold change /veh DDX43 (11728927_at) / RFU KRT8 (11758188_x_at) / Fold change /veh KRT8 (11758188_x_at) / RFU NKD1 (11759106_at) / Fold change /veh NKD1 (11759106_at) / RFU SRD5A1 (11742802_a_at) / Fold change /veh SRD5A1 (11742802_a_at) / RFU TPSAB1 /// TPSB2 (11721975_s_at) / Fold change /veh TPSAB1 /// TPSB2 (11721975_s_at) / RFU GSTM3 (11746129_a_at) / Fold change /veh GSTM3 (11746129_a_at) / RFU IL23R (11737362_x_at) / Fold change /veh IL23R (11737362_x_at) / RFU TMEM51 (11727254_a_at) / Fold change /veh TMEM51 (11727254_a_at) / RFU PIWIL2 (11732686_x_at) / Fold change /veh PIWIL2 (11732686_x_at) / RFU ORM1 (11744905_x_at) / Fold change /veh ORM1 (11744905_x_at) / RFU CCDC152 (11743942_at) / Fold change /veh CCDC152 (11743942_at) / RFU ECM1 (11717891_a_at) / Fold change /veh ECM1 (11717891_a_at) / RFU IL23R (11748794_a_at) / Fold change /veh IL23R (11748794_a_at) / RFU TNFAIP8L3 (11732012_x_at) / Fold change /veh TNFAIP8L3 (11732012_x_at) / RFU MBOAT4 (11741988_at) / Fold change /veh MBOAT4 (11741988_at) / RFU 11764193_at / Fold change /veh 11764193_at / RFU TMEM53 (11763286_at) / Fold change /veh TMEM53 (11763286_at) / RFU MAGEB2 (11727129_at) / Fold change /veh MAGEB2 (11727129_at) / RFU TMEM200A (11744735_a_at) / Fold change /veh TMEM200A (11744735_a_at) / RFU CCDC152 (11751479_a_at) / Fold change /veh CCDC152 (11751479_a_at) / RFU FAM211A (11726209_a_at) / Fold change /veh FAM211A (11726209_a_at) / RFU RGS16 (11746705_a_at) / Fold change /veh RGS16 (11746705_a_at) / RFU VCAN (11755009_s_at) / Fold change /veh VCAN (11755009_s_at) / RFU RHOB (11743442_s_at) / Fold change /veh RHOB (11743442_s_at) / RFU RGS16 (11720943_a_at) / Fold change /veh RGS16 (11720943_a_at) / RFU RGS16 (11720944_at) / Fold change /veh RGS16 (11720944_at) / RFU, VPS4B / Fold change vs veh, VPS4B / RFU, CREB1 / Fold change vs veh, CREB1 / RFU, DNAJC13 / Fold change vs veh, DNAJC13 / RFU, GNAQ / Fold change vs veh, GNAQ / RFU, CDK5R1 / Fold change vs veh, CDK5R1 / RFU, ZRANB3 / Fold change vs veh, ZRANB3 / RFU, CUL4A / Fold change vs veh, CUL4A / RFU, CCNY / Fold change vs veh, CCNY / RFU, UFL1 / Fold change vs veh, UFL1 / RFU, COG3 / Fold change vs veh, COG3 / RFU, DIAPH2 / Fold change vs veh, DIAPH2 / RFU, SKA2 / Fold change vs veh, SKA2 / RFU, AFF3 / Fold change vs veh, AFF3 / RFU, LMF1 / Fold change vs veh, LMF1 / RFU, IPO11 / Fold change vs veh, IPO11 / RFU, DFFB / Fold change vs veh, DFFB / RFU, FOXP1 / Fold change vs veh, FOXP1 / RFU, CARD8 / Fold change vs veh, CARD8 / RFU, STRN3 / Fold change vs veh, STRN3 / RFU, ADK / Fold change vs veh, ADK / RFU, RASSF2 / Fold change vs veh, RASSF2 / RFU, WIPF1 / Fold change vs veh, WIPF1 / RFU, LARP1B / Fold change vs veh, LARP1B / RFU, RASA1 / Fold change vs veh, RASA1 / RFU, RB1 / Fold change vs veh, RB1 / RFU, PPFIA1 / Fold change vs veh, PPFIA1 / RFU, MAT2A / Fold change vs veh, MAT2A / RFU, CCT5 / Fold change vs veh, CCT5 / RFU, WDR92 / Fold change vs veh, WDR92 / RFU, CUX1 / Fold change vs veh, CUX1 / RFU, TTC7A / Fold change vs veh, TTC7A / RFU, TMEM135 / Fold change vs veh, TMEM135 / RFU, DEPTOR / Fold change vs veh, DEPTOR / RFU, CPM / Fold change vs veh, CPM / RFU, DNAJB6 / Fold change vs veh, DNAJB6 / RFU, CACNA2D3 / Fold change vs veh, CACNA2D3 / RFU, DTX4 / Fold change vs veh, DTX4 / RFU, TFCP2 / Fold change vs veh, TFCP2 / RFU, GMCL1 /// GMCL1P1 / Fold change vs veh, GMCL1 /// GMCL1P1 / RFU, AEBP2 / Fold change vs veh, AEBP2 / RFU, SNHG1 /// SNORD22 /// SNORD25 /// SNORD26 /// SNORD27 /// SNORD28 /// SNORD29 /// SNORD31 / Fold change vs veh, SNHG1 /// SNORD22 /// SNORD25 /// SNORD26 /// SNORD27 /// SNORD28 /// SNORD29 /// SNORD31 / Fold change (Aza/veh), C12orf56 (ProbeSet 11735607_a_at) / Fold change (ACY-1035/veh), C12orf56 (ProbeSet 11735607_a_at) / Fold change (Aza/veh), FGFR1OP (ProbeSet 11751329_s_at) / Fold change (ACY-1035/veh), FGFR1OP (ProbeSet 11751329_s_at) / Fold change (Aza/veh), VPS36 (ProbeSet 11739960_a_at) / Fold change (ACY-1035/veh), VPS36 (ProbeSet 11739960_a_at) / RFU SYPL1 (11715823_x_at) / Fold change /veh SYPL1 (11715823_x_at) / RFU IGFBP7 (11715501_s_at) / Fold change /veh IGFBP7 (11715501_s_at) / RFU REEP3 (11722064_at) / Fold change /veh REEP3 (11722064_at) / RFU IGLL1 (11728026_x_at) / Fold change /veh IGLL1 (11728026_x_at): dose or concentration left out as unconfirmed.

On to `Nc1ccc(-c2cccs2)cc1NC(=O)c1ccc2c(c1)cc(C1CC1)n2CCN1CCOCC1` [ACY-1035], for which the “RFU, AFF3” value was determined as 669.34 RFU.
